Biological target: FLIP-AF1 biosensor (AF1 protein fused to CFP and YFP Venus) (Agrobacterium fabrum, UniProt A9CK51)
Conditions: excitation 433 nm, emission 485/528 nm; 20 mM sodium phosphate buffer, pH 7.0
Description: A DNA fragment encoding the mature AF1 protein was fused to CFP and the YFP Venus sequence at the N- and C-termini, respectively. Emission spectra and substrate titration curves were obtained by using monochromator microplate reader Safire (Tecan, Austria). Excitation filter was 433/−12 nm, emission filters for CFP and YFP emission were 485/−12, 528 nm/12 nm, respectively. All analyses were done in 20 mM sodium phosphate buffer, pH 7.0.
The FLIP-AF1 biosensor (see SEQ ID Nos. 3 and 4) was titrated against various putrescine concentrations.

FLIP-AF1 biosensor (AF1 protein fused to CFP and YFP Venus), sequence (A9CK51 27-365): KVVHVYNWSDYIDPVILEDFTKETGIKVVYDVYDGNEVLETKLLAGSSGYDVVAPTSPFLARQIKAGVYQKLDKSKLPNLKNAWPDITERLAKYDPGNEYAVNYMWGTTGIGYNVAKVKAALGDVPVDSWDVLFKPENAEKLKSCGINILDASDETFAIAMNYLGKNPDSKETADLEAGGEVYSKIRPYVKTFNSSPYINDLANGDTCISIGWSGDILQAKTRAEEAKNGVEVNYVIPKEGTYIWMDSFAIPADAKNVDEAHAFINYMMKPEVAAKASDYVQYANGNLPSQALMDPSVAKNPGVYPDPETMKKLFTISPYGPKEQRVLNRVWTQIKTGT

change in CFP/YFP emission (YFP/CFP ratio) on addition of putrescine: decrease in the YFP/CFP ratio
SMILES: NCCCCN [putrescine, 1,4-diaminobutane]

Source: patent publication US20090178149A1, “Polyamine Sensors and Methods of Using the Same” (priority 2005, published 2009)
